From patent US8188077B2, “Apoptosis-inducing agents for the treatment of cancer and immune and autoimmune diseases” (Abbott Laboratories, priority 2010, dated 2012)

target: T1, Bcl-2 protein (Homo sapiens, UniProt P10415, DELINS35-91DVEENRTEAPEGTESE, form not given); assay: Bcl-2 fluorescence polarization assay (FPA) binding; settings: 10 nM Bcl-2 protein, 1 nM fluorescein-labeled BAX peptide, room temperature, read-out: Bcl-2 FPA 11pt Ki
T1 construct: fused on or other part: Bcl-xL (Q07817) residues 29-44 stand in place of Bcl-2's own unstructured loop 35-91; The C-terminal membrane anchor (208-239) is absent
T1 sequence (P10415 with tags, fused parts or gaps with the stated changes): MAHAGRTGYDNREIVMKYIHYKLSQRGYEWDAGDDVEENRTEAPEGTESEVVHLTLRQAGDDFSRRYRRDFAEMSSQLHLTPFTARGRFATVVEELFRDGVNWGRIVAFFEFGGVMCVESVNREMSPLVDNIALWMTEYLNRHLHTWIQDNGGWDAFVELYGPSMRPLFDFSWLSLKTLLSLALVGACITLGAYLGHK
Method: Assays for the inhibition of Bcl-2 were performed in 96-well microtiter plates. Compounds of the instant invention were diluted in DMSO to concentrations between […] and 10 pM and introduced into each well of the plate. A mixture totaling 125 µL per well of assay buffer (20 mM phosphate buffer (pH 7.4), 1 mM EDTA, 0.05% PF-68), 10 nM of Bcl-2 protein (prepared according to the procedure described in PNAS 2001, 98, 3012-3017), 1 nM fluorescein-labeled BAX peptide (prepared in-house), and the DMSO solution of the compound of the instant invention was shaken for 2 minutes and placed in a LJL Analyst (LJL Bio Systems, CA. Polarization was measured at room temperature using a continuous Fluorescein lamp (excitation 485 nm, emission 530 nm). Ki values were calculated using Microsoft Excel.

| Ki [nM] | Structure (SMILES) |
| --- | --- |
| < 20 | CC1(C)[C@H]2CCC(Nc3ccccc3CN3CCN(c4ccc(C(=O)NS(=O)(=O)c5ccc(NCC6CCOCC6)c([N+](=O)[O-])c5)cc4)CC3)[C@@H]1C2 (stereo partly drawn) [Example 18, 4-[4-(2-{[(1R,5S)-6,6-dimethylbicyclo[3.1.1]hept-2-yl]amino}benzyl)piperazin-1-yl]-N-({3-nitro-4-[(tetrahydro-2H-pyran-4-ylmethyl)amino]phenyl}sulfonyl)benzamide] |
| 603 | CC1(C)[C@H]2CC(CN3CCN(c4ccc(C(=O)NS(=O)(=O)c5ccc(NCC6CCCCC6)c([N+](=O)[O-])c5)cc4)CC3)=C(c3ccc(Cl)cc3)[C@@H]1C2 [Example 19, 4-(4-{[(1R,5R)-2-(4-chlorophenyl)-6,6-dimethylbicyclo[3.1.1]hept-2-en-3-yl]methyl}piperazin-1-yl)-N-({4-[(cyclohexylmethyl)amino]-3-nitrophenyl}sulfonyl)benzamide] |
| > 51900 | CC1(C)CCC(NCC2C3CC4CC(C3)CC2C4)C(CN2CCN(c3ccc(C(=O)NS(=O)(=O)c4ccc(NCC5CCOCC5)c([N+](=O)[O-])c4)cc3)CC2)C1 (stereo not shown) [Example 20, 4-{4-[(2-{[adamantan-2-ylmethyl]amino}-5,5-dimethylcyclohexyl)methyl]piperazin-1-yl}-N-({3-nitro-4-[(tetrahydro-2H-pyran-4-ylmethyl)amino]phenyl}sulfonyl)benzamide] |
| 5600 | C[C@@H]1[C@@H](NC2CCC(C)(C)CC2CN2CCN(c3ccc(C(=O)NS(=O)(=O)c4ccc(NCC5CCOCC5)c([N+](=O)[O-])c4)cc3)CC2)C[C@@H]2C[C@H]1C2(C)C (stereo partly drawn) [Example 21, 4-{4-[(5,5-dimethyl-2-{[(1R,2S,3S,5S)-2,6,6-trimethylbicyclo[3.1.1]hept-3-yl]amino}cyclohexyl)methyl]piperazin-1-yl}-N-({3-nitro-4-[(tetrahydro-2H-pyran-4-ylmethyl)amino]phenyl}sulfonyl)benzamide] |
| 31.4 | O=C(NS(=O)(=O)c1ccc(NCC2CCOCC2)c([N+](=O)[O-])c1)c1ccc(N2CCN(Cc3cc([N+](=O)[O-])ccc3N3CC4CCC(CC4)C3)CC2)cc1 [Example 22, 4-{4-[2-(3-azabicyclo[3.2.2]non-3-yl)-5-nitrobenzyl]piperazin-1-yl}-N-({3-nitro-4-[(tetrahydro-2H-pyran-4-ylmethyl)amino]phenyl}sulfonyl)benzamide] |
| < 20 | O=C(NS(=O)(=O)c1ccc(NCC2CCOCC2)c([N+](=O)[O-])c1)c1ccc(N2CCN(Cc3ccccc3C3=CC4CC3C3CCCC43)CC2)cc1 (stereo not shown) [Example 23, 4-(4-{2-[2,3,3a,4,7,7a-hexahydro-1H-4,7-methanoinden-5-yl]benzyl}piperazin-1-yl)-N-({3-nitro-4-[(tetrahydro-2H-pyran-4-ylmethyl)amino]phenyl}sulfonyl)benzamide] |
| 2270 | O=C(NS(=O)(=O)c1ccc(NCC2CCOCC2)c([N+](=O)[O-])c1)c1ccc(N2CCN(Cc3ccccc3-c3cn(C45CC6CC(CC(C6)C4)C5)nc3C(=O)N(c3ccccc3)c3ccccc3)CC2)cc1 [Example 24, 1-[adamantan-1-yl]-4-{2-[(4-{4-[({3-nitro-4-[(tetrahydro-2H-pyran-4-ylmethyl)amino]phenyl}sulfonyl)carbamoyl]phenyl}piperazin-1-yl)methyl]phenyl}-N,N-diphenyl-1H-pyrazole-3-carboxamide] |
| 979 | Cc1cc(-c2ccccc2CN2CCN(c3ccc(C(=O)NS(=O)(=O)c4ccc(NCC5CCOCC5)c([N+](=O)[O-])c4)cc3)CC2)c2nc(C34CC5CC(CC(C5)C3)C4)cn2c1 [Example 25, 4-(4-{2-[2-(adamantan-1-yl)-6-methylimidazo[1,2-a]pyridin-8-yl]benzyl}piperazin-1-yl)-N-({3-nitro-4-[(tetrahydro-2H-pyran-4-ylmethyl)amino]phenyl}sulfonyl)benzamide] |
| 27.1 | CC1(C)[C@H]2CC=C(c3ccccc3CN3CCN(c4ccc(C(=O)NS(=O)(=O)c5ccc(NCC6CCOCC6)c([N+](=O)[O-])c5)cc4)CC3)[C@@H]1C2 [Example 27, 4-(4-{2-[(1R,5S)-6,6-dimethylbicyclo[3.1.1]hept-2-en-2-yl]benzyl}piperazin-1-yl)-N-({3-nitro-4-[(tetrahydro-2H-pyran-4-ylmethyl)amino]phenyl}sulfonyl)benzamide] |
| 29.6 | CC1C2CC(C=C2c2ccccc2CN2CCN(c3ccc(C(=O)NS(=O)(=O)c4ccc(NCC5CCOCC5)c([N+](=O)[O-])c4)cc3)CC2)C1(C)C (stereo not shown) [Example 28, N-({3-nitro-4-[(tetrahydro-2H-pyran-4-ylmethyl)amino]phenyl}sulfonyl)-4-(4-{2-[5,5,6-trimethylbicyclo[2.2.1]hept-2-en-2-yl]benzyl}piperazin-1-yl)benzamide] |
| 354 | O=C(NS(=O)(=O)c1ccc(NCC2CCOCC2)c([N+](=O)[O-])c1)c1ccc(N2CCN(Cc3ccccc3-c3ccc(C(=O)NC4CCCCCCC4)o3)CC2)cc1 [Example 29, N-cyclooctyl-5-{2-[(4-{4-[({3-nitro-4-[(tetrahydro-2H-pyran-4-ylmethyl)amino]phenyl}sulfonyl)carbamoyl]phenyl}piperazin-1-yl)methyl]phenyl}-2-furamide] |
| 295 | CC1(C)C2C=C(c3ccccc3CN3CCN(c4ccc(C(=O)NS(=O)(=O)c5ccc(NCC6CCOCC6)c([N+](=O)[O-])c5)cc4)CC3)C1(C(=O)NCc1ccccc1)CC2 (stereo not shown) [Example 30, N-benzyl-7,7-dimethyl-2-{2-[(4-{4-[({3-nitro-4-[(tetrahydro-2H-pyran-4-ylmethyl)amino]phenyl}sulfonyl)carbamoyl]phenyl}piperazin-1-yl)methyl]phenyl}bicyclo[2.2.1]hept-2-ene-1-carboxamide] |
| 31.9 | CN1[C@@H]2CC[C@H]1CC(Nc1ccccc1CN1CCN(c3ccc(C(=O)NS(=O)(=O)c4ccc(NCC5CCOCC5)c([N+](=O)[O-])c4)cc3)CC1)C2 (stereo partly drawn) [Example 31, 4-[4-(2-{[(1R,5S)-8-methyl-8-azabicyclo[3.2.1]oct-3-yl]amino}benzyl)piperazin-1-yl]-N-({3-nitro-4-[(tetrahydro-2H-pyran-4-ylmethyl)amino]phenyl}sulfonyl)benzamide] |
| 91.9 | C[C@@H]1[C@@H](Nc2ccccc2CN2CCN(c3ccc(C(=O)NS(=O)(=O)c4ccc(NCC5CCOCC5)c([N+](=O)[O-])c4)cc3)CC2)C[C@@H]2C[C@H]1C2(C)C [Example 32, N-({3-nitro-4-[(tetrahydro-2H-pyran-4-ylmethyl)amino]phenyl}sulfonyl)-4-[4-(2-{[(1R,2S,3S,5S)-2,6,6-trimethylbicyclo[3.1.1]hept-3-yl]amino}benzyl)piperazin-1-yl]benzamide] |
| < 20 | O=C(NS(=O)(=O)c1ccc(NCC2CCOCC2)c([N+](=O)[O-])c1)c1ccc(N2CCN(Cc3ccccc3N3CC4CCC(CC4)C3)CC2)cc1 [Example 33, 4-(4-{2-[3-azabicyclo[3.2.2]non-3-yl]benzyl}piperazin-1-yl)-N-({3-nitro-4-[(tetrahydro-2H-pyran-4-ylmethyl)amino]phenyl}sulfonyl)benzamide] |
| 47.7 | O=C(NS(=O)(=O)c1ccc(NCC2CCOCC2)c([N+](=O)[O-])c1)c1ccc(N2CCN(Cc3ccccc3C3=CC4CC5CC(C4)CC3C5)CC2)cc1 [Example 34, N-({3-nitro-4-[(tetrahydro-2H-pyran-4-ylmethyl)amino]phenyl}sulfonyl)-4-(4-{2-[tricyclo[4.3.1.1^3,8]undec-4-en-4-yl]benzyl}piperazin-1-yl)benzamide] |
